Ends that are not written are not given here.
Tested on: antibodies against HCV
Assay: PEPSCAN analysis of overlapping octameric peptides of the HCV core protein N-terminal region with HCV-seropositive sera
Type: binding, human
Details: read at 405 nm
Text: The N-terminal 97 amino acid residues of HCV Core protein SEQ ID NO: 8 was mapped with PEPSCAN analysis. This process involved the serological analysis of sequentially overlapping peptides which spanned the region of interest, to identify epitopic domains. Ninety overlapping octameric peptides were synthesized on polypropylene pin supports according to the manufacturer's instructions (Cambridge Research Biochemicals), such that each peptide overlapped with the preceding sequence by the seven N-terminal residues, and with the subsequent peptide by the seven C-terminal residues. Serum or IgG purified from the serum of individuals confirmed to be seropositive for HCV were used to screen the peptides.
The assay procedure followed was performed basically as described in the manufacturers instruction manual. The time and temperature of the test antibody incubation differed from that prescribed, thereby decreasing the time taken for each assay.
Sera: A total of 16 sera were assayed by PEPSCAN. These consisted of 12 sera from paid U.S. Donors which were identified as being positive for antibodies against HCV in routine screening at the site of donation. The remaining four sera were from patients diagnosed as having non-A non-B hepatitis, and which were subsequently shown to contain antibodies to HCV. Sera were screened either as the crude serum fraction, or as a caprylic acid preparation. Caprylic acid purification of IgG from the sera was performed as described by Stienbuch and Audran (1969) Arch. Biochem. Biophys. 134, 279-284.
Assay: The assay format involves sequentially incubating the various pins in microwell plates containing blocking, test antibody, conjugate, and substrate solutions. The immune complex builds up on the pin with the enzyme labelled conjugate being immobilized on the bound anti-peptide antibody from the test serum. When the pin is then immersed in substrate, the enzyme brings about the colour change which is used to quantify the amount of anti-peptide antibody bound.
Blocking: Pins are immersed in 200 μl of Supercocktail (1% Ovalbumin, 1% bovine serum albumin in 0.15M phosphate buffered saline pH 7.2—0.1% Tween 20) and left to stand at room temperature for 1 hour.
Test antibody: The test antibody is diluted between 1/200 (IgG) and 1/1000 (serum) in supercocktail. The pins are then stood in this solution (175 μl/well) at 37° C. for 1 hour. After this incubation the pins are washed four times in 0.15M phosphate buffered saline pH 7.2—0.05% Tween 20, each at room temperature for 10 minutes.
Conjugate: Rabbit anti-human IgG coupled to horseradish peroxidase is diluted 1/1000 in supercocktail. The peptide bearing pins are then stood in this solution at room temperature for 1 hour. Once again the pins are then washed four times as above.
Substrate: The substrate solution is made up fresh for each assay. To 100 ml of 0.1M phosphate, 0.08M citrate buffer pH 4.0 is dissolved 50 mg of 2,2′-AZINO-bis (3-ethylbenzthiazo-linsulphonic acid (ABTS) and 0.3 μl/ml 30% hydrogen peroxide is added. The pins are immersed in the wells containing substrate solution (150 μl/well) and incubated at room temperature in the dark. Once sufficient colour has developed the reaction is stopped by removing the pins. The plates are then read immediately in a spectrophotometric plate reader at a wavelength of 405 nm. The absorbance values are then plotted against pin number. The epitopic domains are then defined as the continuous sequence of amino acids common to all positive pins in the domain i.e.

Sequence | Absorbance Units for different sera (serum 65221) | Absorbance Units for different sera (serum 65234) | Absorbance Units for different sera (serum 65241) | Absorbance Units for different sera (serum 65276) | Absorbance Units for different sera (serum L)
GGGQIVGG (pin support) [overlapping octameric peptide of HCV core protein on pin support] | 137 Absorbance Units | 134 Absorbance Units | 121 Absorbance Units | 127 Absorbance Units | 121 Absorbance Units
GGQIVGGV (pin support) [overlapping octameric peptide of HCV core protein on pin support] | 323 Absorbance Units | 179 Absorbance Units | 122 Absorbance Units | 119 Absorbance Units | 119 Absorbance Units
GGVYLLPR (pin support) [overlapping octameric peptide of HCV core protein on pin support] | 132 Absorbance Units | 344 Absorbance Units | 311 Absorbance Units | 246 Absorbance Units | 191 Absorbance Units
GPRLGVRA (pin support) [overlapping octameric peptide of HCV core protein on pin support] | 111 Absorbance Units | 75 Absorbance Units | 60 Absorbance Units | 146 Absorbance Units | 101 Absorbance Units
GQIVGGVY (pin support) [overlapping octameric peptide of HCV core protein on pin support] | 216 Absorbance Units | 165 Absorbance Units | 112 Absorbance Units | 128 Absorbance Units | 138 Absorbance Units
GVYLLPRR (also: pin support) [Gly-Val-Tyr-Leu-Leu-Pro-Arg-Arg, overlapping octameric peptide of HCV core protein on pin support] | 613 Absorbance Units | 229 Absorbance Units | 511 Absorbance Units | 350 Absorbance Units | 378 Absorbance Units
IVGGVYLL (pin support) [overlapping octameric peptide of HCV core protein on pin support] | 268 Absorbance Units | 186 Absorbance Units | 126 Absorbance Units | 183 Absorbance Units | 158 Absorbance Units
LLPRRGPR (pin support) [overlapping octameric peptide of HCV core protein on pin support] | 142 Absorbance Units | 101 Absorbance Units | 129 Absorbance Units | 98 Absorbance Units | 133 Absorbance Units
LPRRGPRL (pin support) [overlapping octameric peptide of HCV core protein on pin support] | 97 Absorbance Units | 145 Absorbance Units | 94 Absorbance Units | 139 Absorbance Units | 148 Absorbance Units
PRLGVRAT (pin support) [overlapping octameric peptide of HCV core protein on pin support] | 166 Absorbance Units | 88 Absorbance Units | 79 Absorbance Units | 155 Absorbance Units | 115 Absorbance Units
PRRGPPLG [overlapping octameric peptide of HCV core protein on pin support] | 85 Absorbance Units | 109 Absorbance Units | 73 Absorbance Units | 129 Absorbance Units | 110 Absorbance Units
QIVGGVYL (pin support) [overlapping octameric peptide of HCV core protein on pin support] | 329 Absorbance Units | 152 Absorbance Units | 125 Absorbance Units | 165 Absorbance Units | 161 Absorbance Units
RGPRLGVR (pin support) [overlapping octameric peptide of HCV core protein on pin support] | 168 Absorbance Units | 99 Absorbance Units | 94 Absorbance Units | 167 Absorbance Units | 132 Absorbance Units
RLGVRATR (pin support) [overlapping octameric peptide of HCV core protein on pin support] | 81 Absorbance Units | 100 Absorbance Units | 180 Absorbance Units | 177 Absorbance Units | 124 Absorbance Units
RRGPRLGV (pin support) [overlapping octameric peptide of HCV core protein on pin support] | 145 Absorbance Units | 146 Absorbance Units | 85 Absorbance Units | 150 Absorbance Units | 123 Absorbance Units
VGGVYLLP (pin support) [overlapping octameric peptide of HCV core protein on pin support] | 83 Absorbance Units | 235 Absorbance Units | 144 Absorbance Units | 132 Absorbance Units | 169 Absorbance Units
VYLLPRRG (pin support) [Val-Tyr-Leu-Leu-Pro-Arg-Arg-Gly, overlapping octameric peptide of HCV core protein on pin support] | 769 Absorbance Units | 280 Absorbance Units | 641 Absorbance Units | 440 Absorbance Units | 306 Absorbance Units
YLLPRRGP (pin support) [Tyr-Leu-Leu-Pro-Arg-Arg-Gly-Pro, overlapping octameric peptide of HCV core protein on pin support] | 332 Absorbance Units | 177 Absorbance Units | 367 Absorbance Units | 248 Absorbance Units | 242 Absorbance Units
